Experimental data from patent US7151105B2, “Inhibitors of Hepatitis C virus RNA-dependent RNA polymerase, and compositions and treatments using the same” (Agouron Pharmaceuticals, Inc., priority 2004, dated 2006).

The molecules below were run against T1, Recombinant HCV polymerase (Hepatitis C virus genotype 1b, UniProt P26663) (assay: biochemical). Details: inhibition of polymerase-directed transcription; 30 min at 30° C; 30 nM enzyme; cpm data in triplicate.
T1 construct: Recombinant HCV polymerase was tested for its ability to perform primer/template-directed transcription
T1 sequence (P26663 2420-3010): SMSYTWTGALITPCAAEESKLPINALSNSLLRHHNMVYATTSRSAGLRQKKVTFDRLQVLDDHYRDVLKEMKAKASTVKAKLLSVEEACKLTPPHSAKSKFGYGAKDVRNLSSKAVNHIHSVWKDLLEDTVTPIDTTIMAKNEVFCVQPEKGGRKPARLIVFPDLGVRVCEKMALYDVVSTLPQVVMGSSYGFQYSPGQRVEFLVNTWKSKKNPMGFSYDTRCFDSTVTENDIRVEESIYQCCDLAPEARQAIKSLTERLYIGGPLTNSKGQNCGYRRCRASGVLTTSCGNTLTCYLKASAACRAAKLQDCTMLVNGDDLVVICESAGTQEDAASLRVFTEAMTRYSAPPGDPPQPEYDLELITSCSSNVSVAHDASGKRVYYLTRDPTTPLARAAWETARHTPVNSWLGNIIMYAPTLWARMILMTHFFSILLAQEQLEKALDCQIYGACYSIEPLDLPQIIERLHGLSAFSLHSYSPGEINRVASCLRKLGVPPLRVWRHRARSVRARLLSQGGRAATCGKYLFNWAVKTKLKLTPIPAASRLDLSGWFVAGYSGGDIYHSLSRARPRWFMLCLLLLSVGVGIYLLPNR
Description: The compounds described herein were tested for activity with HCV polymerase. Recombinant HCV polymerase was tested for its ability to perform primer/template-directed transcription in assays that contained 30 mM tris-HCl pH 7.2, 10 mM MgCl2, 20 mM NaCl, 1 mM Dithiothreitol (DTT), 0.05% Tween-20, 1% glycerol, 5 pmoles biotin-dG12 (primer), 0.5 pmoles poly(rC)300 (template), 1 μM GTP, 0.1–0.3 uCi α-^32P-GTP, and 2.5 pmoles (0.15 μg) HCV polymerase protein in a final volume of 75 μL. Reactions were initiated by addition of enzyme and incubated 30 minutes at 30° C. Reactions were stopped by addition of 33 mM EDTA, and polynucleotide products were collected by filtration through Diethylaminoethyl (DE) Filtermat papers (Wallac). Unincorporated triphosphate was removed by washing the filters with 5% dibasic sodium phosphate. The filters were counted in a Packard Tri-Lux Microbeta scintillation counter (Packard Bioscience, Meriden, Conn.). Compounds to be tested were added at various concentrations, e.g., 1 μm to 50 μm, from stocks in 10% DMSO-water (final DMSO is 1% in reaction).
IC50 values were estimated from the primary cpm data (collected in triplicate) using the formula: cpm (I)=cpm (no inhibitor)(1−([I]/([I]+IC50))). […] A percent inhibition value is expressed for a compound where it was impractical to calculate an IC50 value with available data.

Compared with `CCc1cc(CCC2(C3CCCC3)CC(O)=C(Cc3nc4nc(C)cc(C)n4n3)C(=O)O2)ccc1CNC(C)=O` (centres unmarked) [A(131), N-[4-(2-{2-cyclopentyl-5-[(5,7-dimethyl[1,2,4]triazolo[1,5-a]pyrimidin-2-yl)methyl]-4-hydroxy-6-oxo-3,6-dihydro-2H-pyran-2-yl}ethyl)-2-ethylbenzyl]acetamide], `CCc1cc(CCC2(C3CCCC3)CC(O)=C(Cc3nc4nc(C)cc(C)n4n3)C(=O)O2)ccc1CNC(=O)OC(C)(C)C` (centres unmarked) [A(126)] is 3-fold higher in IC50: 2 nM for the first, 6 nM for the second.

`CCc1cc(CCC2(C3CCCC3)CC(O)=C(Cc3nc4nc(C)cc(C)n4n3)C(=O)O2)ccc1CC#N` (single isomer, unassigned; enantiomer 1) [A(116), Enantiomer 1 of [4-(2-{2-Cyclopentyl-5-[(5,7-dimethyl[1,2,4]triazolo[1,5-a]pyrimidin-2-yl)methyl]-4-hydroxy-6-oxo-3,6dihydro-2H-pyran-2-yl}ethyl)-2-ethylphenyl]acetonitrile] and `CCc1cc(CCC2(C3CCCC3)CC(O)=C(Cc3nc4nc(C)cc(C)n4n3)C(=O)O2)ccc1COC` (centres unmarked) [A(120), 6-Cyclopentyl-3-[(5,7-dimethyl[1,2,4]triazolo[1,5-a]pyrimidin-2-yl)methyl]-6-{2-[3ethyl-4-(methoxymethyl)phenyl]ethyl}-4-hydroxy-5,6dihydro-2H-pyran-2-one] are within 1.5-fold of each other in IC50: 5 nM for the first, 7 nM for the second.

Going from `Cc1cnc2nc(CC3=C(O)CC(CCc4ccc(C(C)(C)O)c(Cl)c4)(C4CCCC4)OC3=O)nn2c1` (centres unmarked) [B(36), 6-{2-[3-Chloro-4-(1-hydroxy-1-methylethyl)phenyl]ethyl}-6-cyclopentyl-4-hydroxy-3-[(6-methyl[1,2,4]triazolo[1,5-a]pyrimidin-2-yl)methyl]-5,6-dihydro-2H-pyran-2-one] to `CCc1cc(CC[C@]2(C3CCCC3)CC(O)=C(Cc3nc4ncc(C)cn4n3)C(=O)O2)c(O)cc1O` [A(21), (6R)-6-cyclopentyl-6-[2-(5-ethyl-2,4dihydroxyphenyl)ethyl]-4-hydroxy-3-[(6-methyl[1,2,4]triazolo[1,5-a]pyrimidin-2-yl)methyl]-5,6-dihydro-2H-pyran-2-one], the IC50 falls from 19 nM to 1 nM (19-fold). The second is the more potent here.

Going from `CCc1cc(CCC2(C3CCCC3)CC(O)=C(Cc3nc4nc(C)cc(C)n4n3)C(=O)O2)ccc1CC#N` (centres unmarked) [A(101), [4-(2-{2-Cyclopentyl-5-[(5,7-dimethyl[1,2,4]triazolo[1,5-a]pyrimidin-2-yl)methyl]-4-hydroxy-6-oxo-3,6-dihydro-2H-pyran-2-yl}ethyl)-2-ethylphenyl]acetonitrile] to `CCc1cc(CCC2(C3CCCC3)CC(O)=C(Cc3nc4nc(C)cc(C)n4n3)C(=O)O2)ccc1CNC(C)=O` (single isomer, unassigned; enantiomer 1) [A(132), Enantiomer 1 of N-[4-(2-[2-cyclopentyl-5-[(5,7-dimethyl[1,2,4]triazolo[1,5-a]pyrimidin-2-yl)methyl]-4-hydroxy-6-oxo-3,6-dihydro-2H-pyran-2-yl}ethyl)-2-ethylbenzyl]acetamide], the IC50 rises from 8 nM to 35 nM (4.4-fold).

Going from `CCCOc1cc(O)c(CC(F)(F)F)cc1CCC1(C2CCCC2)CC(O)=C(Cc2nc3nc(C)cc(C)n3n2)C(=O)O1` (centres unmarked) [A(77), 6-Cyclopentyl-3-[(5,7-dimethyl[1,2,4]triazolo[1,5-a]pyrimidin-2-yl)methyl]-4-hydroxy-6-{2-[4-hydroxy-2-propoxy-5-(2,2,2-trifluoroethyl)phenyl]ethyl}-5,6-dihydro-2H-pyran-2-one] to `CCc1cc(CCC2(C3CCCC3)CC(O)=C(Cc3nc4nc(C)cc(C)n4n3)C(=O)O2)c(OC)cc1OC` (centres unmarked) [A(24), 6-Cyclopentyl-3-[(5,7-dimethyl[1,2,4]triazolo[1,5-a]pyrimidin-2-yl)methyl]-6-[2-(5-ethyl-2,4-dimethoxyphenyl)ethyl]-4-hydroxy-5,6-dihydro-2H-pyran-2-one], the IC50 rises from 5 nM to 14 nM (2.8-fold).

`CCc1cncc(CCC2(C3CCCC3)CC(O)=C(Cc3nc4nc(C)cc(C)n4n3)C(=O)O2)c1` (centres unmarked) [A(14), 6-Cyclopentyl-3-[(5,7-dimethyl[1,2,4]triazolo[1,5-a]pyrimidin-2-yl)methyl]-6-[2-(5-ethylpyridin-3-yl)ethyl]-4-hydroxy-5,6dihydro-2H-pyran-2-one] and `CCc1ccnc(CCC2(C3CCCC3)CC(O)=C(Cc3nc4nc(C)cc(C)n4n3)C(=O)O2)c1` (centres unmarked) [A(15), 6-Cyclopentyl-3-[(5,7-dimethyl[1,2,4]triazolo[1,5-a]pyrimidin-2-yl)methyl]-6-[2-(4-ethylpyridin-2-yl)ethyl]-4-hydroxy-5,6-dihydro-2H-pyran-2-one] are within 1.5-fold of each other in IC50: 8 nM for the first, 7 nM for the second.

Compared with `CCc1cc(CCC2(C3CCCC3)CC(=O)CC(=O)O2)ccc1CO` (centres unmarked) [B(34), 6-Cyclopentyl-6-{2-[3-ethyl-4-(hydroxymethyl)phenyl]ethyl}dihydro-2H-pyran-2,4(3H)-dione], `CCc1cc(CCC2(C3CCCC3)CC(=O)CC(=O)O2)ccc1CC#N` (centres unmarked) [A(102), {4-[2-(2-Cyclopentyl-4,6-dioxotetrahydro-2H-pyran-2-yl)ethyl]-2-ethylphenyl}acetonitrile] is 1.5-fold lower in IC50: 1300 nM for the first, 840 nM for the second. The second is the more potent here.

`CCc1cc(CCC2(C3CCCC3)CC(O)=C(Cc3nc4nc(C)cc(C)n4n3)C(=O)O2)ccc1Cn1cccn1` (centres unmarked) [A(112), 6-Cyclopentyl-3-[(5,7-dimethyl[1,2,4]triazolo[1,5-a]pyrimidin-2-yl)methyl]-6-{2-[3-ethyl-4-(1H-pyrazol-1-ylmethyl)phenyl]ethyl}-4-hydroxy-5,6-dihydro-2H-pyran-2-one] and `CCc1cc(CCC2(C3CCCC3)CC(O)=C(Cc3nc4nc(C)cc(C)n4n3)C(=O)O2)ccc1-c1ncco1` (single isomer, unassigned; enantiomer 1) [A(138), Enantiomer 1 of 6-Cyclopentyl-3-[(5,7-dimethyl[1,2,4]triazolo[1,5-a]pyrimidin-2-yl)methyl]-6-{2-[3-ethyl-4-(1,3-oxazol-2-yl)phenyl]ethyl}-4-hydroxy-5,6-dihydro-2H-pyran-2-one] are within 1.5-fold of each other in IC50: 7 nM for the first, 10 nM for the second.

First: CCc1cc(CCC2(C3CCCC3)CC(O)=C(Cc3nc4nc(C)cc(C)n4n3)C(=O)O2)c(OC)cn1 (single isomer, unassigned) [A(39), 6-Cyclopentyl-3-[(5,7-dimethyl[1,2,4]triazolo[1,5-a]pyrimidin-2-yl)methyl]-6-[2-(2-ethyl-5-methoxypyridin-4-yl)ethyl]-4-hydroxy-5,6-dihydro-2H-pyran-2-one]
Second: Cc1cc(C)n2nc(CC3=C(O)CC(CCc4ccc(C(=O)O)c(Cl)c4)(C4CCCC4)OC3=O)nc2n1 (centres unmarked) [B(12)]
The IC50 of the first is 18-fold lower: 6 nM for the first, 110 nM for the second. The first is the more potent here.

First: COc1cc(OC)c(CCC2(C3CCCC3)CC(=O)C(Sc3nc(N)nc4nc[nH]c34)C(=O)O2)cc1Cl (centres unmarked) [B(21), 3-[(2-Amino-7H-purin-6-yl)thio]-6-[2-(5-chloro-2,4-dimethoxyphenyl)ethyl]-6-cyclopentyldihydro-2H-pyran-2,4(3H)-dione]
Second: CCc1cc(CCC2(C3CCCC3)CC(O)=C(Cc3nc4nc(C)cc(C)n4n3)C(=O)O2)c(OC)cn1 (centres unmarked) [A(3), 6-Cyclopentyl-3-[(5,7-dimethyl[1,2,4]triazolo[1,5-a]pyrimidin-2-yl)methyl]-6-[2-(2-ethyl-5-methoxypyridin-4-yl)ethyl]-4-hydroxy-5,6-dihydro-2H-pyran-2-one]
The IC50 of the first is 180-fold higher: 178 nM for the first, 1 nM for the second.

First: CCc1cc(CCC2(C3CCCC3)CC(O)=C(Cc3nc4ncccn4n3)C(=O)O2)ccc1NS(C)(=O)=O (centres unmarked) [A(107), N-(4-{2-[2-cyclopentyl-4-hydroxy-6-oxo-5-([1,2,4]triazolo[1,5-a]pyrimidin-2-ylmethyl)-3,6dihydro-2H-pyran-2-yl]ethyl}-2-ethylphenyl)methanesulfonamide]
Second: CC(C)(C#N)c1ccc(CCC2(C3CCCC3)CC(O)=C(Cc3cn4nccnc4n3)C(=O)O2)cc1Cl (centres unmarked) [B(14), 2-(2-Chloro-4-{2-[2-cyclopentyl-4-hydroxy-5-(imidazo[1,2-b][1,2,4]triazin-6-ylmethyl)-6-oxo-3,6-dihydro-2H-pyran-2-yl]ethyl}phenyl)-2-methylpropanenitrile]
The IC50 of the first is 4.3-fold lower: 6 nM for the first, 26 nM for the second.

Compared with `CCCOc1cc(O)c(CC)cc1CCC1(C2CCCC2)CC(O)=C(Cc2nc3ncc(C)cn3n2)C(=O)O1` (centres unmarked) [A(47), 6-Cyclopentyl-6-[2-(5-ethyl-4-hydroxy-2-propoxyphenyl)ethyl]-4-hydroxy-3-[(6-methyl[1,2,4]triazolo[1,5-a]pyrimidin-2-yl)methyl]-5,6-dihydro-2H-pyran-2-one], `Cc1cnc2nc(CC3=C(O)CC(CCc4cc(CC(F)(F)F)nc(CC(F)(F)F)c4)(C4CCCC4)OC3=O)nn2c1` (centres unmarked) [A(48), 6-{2-[2,6-Bis(2,2,2-trifluoroethyl)pyridin-4-yl]ethyl}-6-cyclopentyl-4-hydroxy-3-[(6-methyl[1,2,4]triazolo[1,5-a]pyrimidin-2-yl)methyl]-5,6-dihydro-2H-pyran-2-one] is 4.6-fold higher in IC50: 5 nM for the first, 23 nM for the second.

Going from `COC(=O)c1ccc(CCC2(C3CCCC3)CC(=O)CC(=O)O2)cc1F` (centres unmarked) [B(5), Methyl 4-[2-(2-cyclopentyl-4,6-dioxotetrahydro-2H-pyran-2-yl)ethyl]-2-fluorobenzoate] to `COc1cnc(C)cc1CCC1(C2CCCC2)CC(=O)CC(=O)O1` (centres unmarked) [A(7), 6-Cyclopentyl-6-[2-(5-methoxy-2-methylpyridin-4-yl)ethyl]dihydro-2H-pyran-2,4(3H)dione], the IC50 falls from 22000 nM to 11300 nM (1.9-fold).
